In patent US20240409890A1, “UFMYLATION INHIBITION TO TARGET TAUOPATHY IN HUMAN NEURONS” (priority 2023, published 2024):

What was measured:
Format in all cases: cell-based, human
[1] = tested on: hM4Di-expressing K18-seeded 4R-P301S-HaloTag neurons; assay: DREADDs chronic neuronal silencing, MC1 tau inclusions; conditions: CNO weekly for 2 weeks starting one week after K18 seeding
Protocol: 4R-P301S-HaloTag iPSCs were differentiated into neurons on coverslips as described. Neurons were transduced with hSyn-hM4Di-mCherry lentivirus on D6. This lentiviral construct was made using the 3rd generation lentiviral plasmid FUGW (Addgene, 14883), where the PacI+EcoRI fragment was replaced by hSyn-hM4D(Gi)-mCherry. pAAV-hSyn-hM4D(Gi)-mCherry was a gift from Bryan Roth (Addgene, 50475; http://n2t.net/addgene). The medium was changed on D7, and neurons were seeded with […] K18-tau fibrils. Neurons were maintained as described. Beginning at D14, clozapine-N-oxide (CNO; Tocris) was included in weekly media changes for a final concentration of […]. Neurons were fixed and stained with MC1 on D29. For MC1 quantification, stained neurons were imaged with a fluorescence microscope (Keyence BZ-X710). A 20× objective was used to acquire a series of 10 Z-stack images per coverslip. To validate the neuronal silencing effect of CNO by calcium imaging, 4R-P301S neurons were differentiated and transduced with hSyn-hM4Di-mCherry and hSyn-GCaMP8f lentivirus on D6. At D36, JFX-549 was added to neurons and prepared for imaging as described above. Exposure time was set to 20 milliseconds. Neurons were perfused with 10 μM CNO at 60 seconds and calcium traces in one field were recorded for 400 seconds.

[2] = tested on: hM4Di-expressing 4R-P301S neurons; assay: Calcium imaging of acute neuronal silencing by CNO; conditions: upon addition of CNO
Protocol: 4R-P301S-HaloTag iPSCs were differentiated into neurons on coverslips as described. Neurons were transduced with hSyn-jGCaMP8f lentivirus on D6. This lentiviral construct was made using the 3rd generation lentiviral plasmid FUGW (Addgene, 14883), where the PacI+EcoRI fragment was replaced by the hSyn-GCaMP8f fragment (Zhang et al., 2023). pGP-AAV-hSyn-jGCaMP8f-WPRE was a gift from GENIE Project (Addgene, 162376). The medium was changed on D7, and neurons were seeded with […] K18-tau fibrils. Neurons were maintained as described until imaging at 4 and 5 weeks old. On the day of imaging, JFX-549 HaloTag ligand (HHMI Janelia) was diluted into fresh maturation medium to […], and one-fifth of neuronal medium was replaced with diluted ligand (200 nM final ligand concentration). Cells were incubated at 37° C. for 15 minutes. An equal volume of medium was replaced with half-fresh medium, and half-conditioned medium from a control well. […] Fluorescence time-lapse images were collected on a Nikon FN1 microscope using a 60×, 1.0 NA objective (CFI APO 60XW NIR, Nikon) and a C-FL GFP filter cube. […]
4R-P301S-HaloTag iPSCs were differentiated into neurons on coverslips as described. […] For MC1 quantification, stained neurons were imaged with a fluorescence microscope (Keyence BZ-X710). […] Neurons were perfused with 10 μM CNO at 60 seconds and calcium traces in one field were recorded for 400 seconds.

[3] = tested on: tau inclusion in K18-seeded 4R-P301S neurons; assay: UBA5 inhibitor treatment, flow cytometry of MC1+ tau inclusions; conditions: for tau inclusion induced by K18 seeding (MC1+/DAPI+ neurons) compared with control treatment group: treated Day 5, 3.0 ug/mL K18 Day 7, FACS Day 21
Protocol: Pre-differentiation of human iPSCs into neurons was initiated by plating 1.5×10^6 iPSCs in one well Matrigel-coated 6-well plates with Knockout DMEM/F-12 media containing doxycycline ([…]), N2 supplement, non-essential amino acids, brain-derived neurotrophic factor (10 ng/mL, Peprotech), neurotrophin-3 (10 ng/mL, PeproTech) and ROCK inhibitor (Y-27632, Cayman chemicals). The media was replaced the next day without ROCK inhibitor, and pre-differentiation was maintained for a total of three days. On day 0, the pre-differentiated precursor cells were dissociated with Accutase and re-plated generally onto Laminin-coated coverslips (Neuvitro) at 1.5×10^5 cells/coverslip or 12-well tissue culture plates (Corning) at 3.8×10^5 cells/well for the growth of neuronal cultures in Neurobasal Plus media containing B27 supplement, Glutamax, BDNF (10 ng/mL) and NT3 (10 ng/mL) with doxycycline (2 μg/mL). Half of the medium was replaced on day 3, as well as on day 7 with the removal of doxycycline from the fresh media. The medium volume was doubled on day 21. Thereafter, one-half of the medium was replaced with fresh medium weekly until the cells were collected. All human iPS cell lines used in this work have been regularly tested for mycoplasma (Lonza) and karyotyped (MSK Molecular Cytogenetics Core).
Myc-tagged K18-P301L Tau was expressed and purified as previously described2. Briefly, protein expression was induced in Terrific Broth containing the chemical chaperone betaine (10 mM) and IPTG (500 uM) for 3 hrs at 30° C. Tau was purified via the following major steps: mechanical lysis, boiling, centrifugation, and cation exchange. Purified Tau fractions were dialyzed into aggregation assay buffer (PBS pH 7.4, 2 mM DTT). To minimize potential endotoxin contamination, purified tau was incubated with poly(epsilon-lysine) conjugated resin (Pierce), then tested post-treatment for endotoxin levels using the ToxinSensor™ Chromogenic LAL Endotoxin Assay Kit (Genscript). […] The concentration of aggregated tau was quantified by Pierce BCA assay. […]

[4] = tested on: 4R-P301S iPSC-derived neurons; assay: Toxic effect of UBA5 inhibitor on iPSC-derived neurons; conditions: 5 uM, 10 uM and 20 uM (data not shown)
Protocol: 4R-P301S iPSCs were seeded at the density of 1.2×10^7 per plate in 10-cm plates in pre-differentiation medium. On day 0, pre-differentiated neurons were replated at the density of 4×10^5 per well in poly-D-lysine (PDL) pre-coated 12-well plates (Corning) in maturation medium. On day 5, iPSCs differentiated neurons were treated with three UBA5 inhibitors separately ay various concentrations. On day 7, iPSCs differentiated neurons were treated with […] K18 fibrils for 2 weeks. On day 21, neurons in 12-well plates were collected for flow cytometry analysis.

| SMILES | levels of Tau inclusions (MC1+ aggregates) compared with vehicle treatment [1] | neuronal activities (calcium imaging) [2] | tau inclusion induced by K18 seeding (MC1+/DAPI+ neurons) compared with control treatment group ([3]; 0.1 uM) | tau inclusion induced by K18 seeding (MC1+/DAPI+ neurons) compared with control treatment group ([3]; 1 uM) | percentage of MC1+ cells (tau inclusion induced by K18 treatment) ([3]; D21(7+14), 3 μg/ml K18-seeded 4R-P301S neurons pre-treated at various concentrations, FIG. 15 legend) | toxic effect on neurons [4] |
| --- | --- | --- | --- | --- | --- | --- |
| C[N+]1([O-])CCN(C2=Nc3cc(Cl)ccc3Nc3ccccc32)CC1 [CNO, clozapine-N-oxide] | significantly reduced | silenced |  |  |  |  |
| CC(=O)c1c(O)c(C)c(O)c2c1OC1=CC(=O)/C(=C(/C)N)C(=O)[C@@]12C [Usenamine A, (2E,9bR)-6-acetyl-2-(1-aminoethylidene)-7,9-dihydroxy-8,9b-dimethyldibenzouran-1,3-dione] |  |  | failed to prevent tau inclusion | successfully prevented tau inclusion | prevented the tau inclusion | exerted toxic effect on neurons |
